pKi: −log10 of the molar value. Entries after “also recorded” stand apart in the source; their conditions may differ. No end group written: not given here.
How the values were obtained:
[1] = Nocturnal food intake after icv peptide; format: in vivo, rat; conditions: 1 μg icv, rats
From the text: (§1) To identify cell groups responsive to central Ucn II administration, and to evaluate the extent to which these may conform to sites of CRF-R2 expression, the induced expression of the immediate-early gene product, Fos, in response; to icv peptide administration was monitored. Adult male Sprague-Dawley rats (250-300 g at start of experiments) and C57 BL/6 mice (25-40 g) were housed in a colony room on a 12:12 light:dark cycle, and with free access to food and water prior to experimentation. For intracerebroventricular (icv) injections, rats were anesthetized with ketamine/xylazine/acepromazine and stereotaxically implanted with a 26 ga guide cannula terminating in the lateral ventricle. For intravenous (iv) administration of peptides, animals were fitted with indwelling jugular venous catheters. […]
To monitor induced patterns of Fos expression, rats were injected at 10 am, either icv or iv with synthetic Ucn II (1, 5 or 10 μg/animal in 2 μl saline for icv injections or 200 μl for iv administration), or vehicle alone, and perfused two hours later. […] Consumption was then measured hourly for 6 hrs and at 12 hrs. Data were analyzed using repeated measures analysis of variance (ANOVA), with the Bonferoni correction for multiple comparisons applied as warranted. […]

[2] = Telemetric gross motor activity after icv peptide; format: in vivo, rat; conditions: 1 μg icv, rats, telemetry
From the text: as §1, with “catheters. Rats that received icv injections were also implanted intra-abdominally with a transmitter to remotely monitor gross activity levels and body temperature (Mini-Mitter). After surgery, animals were allowed to recover for 7 days prior to any experimentation, during which time they were handled daily.” for “catheters.”
In these same subjects, gross motor activity and body temperature were monitored telemetrically (FIG. 10B). […] Core body temperature was also recorded, with each peptide provoking comparably mild (0.5-1° C.) and transient (2 hr) hypothermic responses (data not shown).

Fos expression = assay: hURP-stimulated Fos expression in rat brain; format: in vivo; conditions: 5 μg icv, rats sacrificed two hours later
Procedure: Activation of central stress-related cells groups by human urocortin-related peptide was examined by detection of the Fos gene product in the cells following injection with human urocortin-related peptide. Rats were implanted with guide cannulae in a lateral cerebral ventricle seven days prior to experimentation. On the day of testing, the rats were injected with 5 μg synthetic human urocortin-related peptide in 5 μl of sterile saline. The rats were sacrificed two hours later and slides of various brain sections were prepared. The slides were stained by immunoperoxidase localization of Fos-immunoreactivity using a polyclonal serum raised in rabbit against residues 3-16 of the human Fos protein.

[3] = tested on: rat anterior pituitary cells; assay: ACTH secretion from primary rat anterior pituitary cells; format: cell-based; conditions: primary cultures of rat anterior pituitary cells
Procedure: Secreted ACTH was measured using a kit (Nichols Institute Diagnostics).
For pituitary actions, ACTH secretion response to human urocortin-related peptide was measured in primary cultures of rat anterior pituitary cells as described (30). ACTH levels were determined using the ACTH immunoassay kit from Nichols Institute Diagnostics. The rat anterior pituitary cells were treated with either rat urocortin or human urocortin-related peptide and the level of secreted ACTH was measured, using a kit (Nichols Institute Diagnostics).

[4] = Gross motor activity after icv hURP; format: in vivo, rat; conditions: 5 μg icv, counts over four hours
From the text: To determine if human urocortin-related peptide plays a role in the generation of stress response, the effect of human urocortin-related peptide on the gross motor activity of rats was examined. Cannulas were surgically into the right lateral ventricle while telemeters were implanted intraabdominally to allow for continuous monitoring of gross motor activity. The animals were allowed a post-surgical recovery period of seven days. During the time, the animals were handled daily to acclimatize the animals to the injection procedure. On the day of injection, baseline activity was for recorded for four hours. At 6:00 p.m., which was the onset of lights out, the animals received an injection of either 5 μl of saline or 5 μl of saline containing a total of 5 μg of human urocortin-related peptide. Activity counts were summated over a four hour time period.

CRFR1 [5] = molecular target: T1, CRFR1 (Homo sapiens, UniProt P34998); assay: Accumulation of intracellular cAMP in stably transfected CHO cells; format: cell-based; conditions: peptides 20 min at 37° C.
T1 construct: expressed in transfected cells; host or cells: CHO cells, stably transfected
T1 sequence (P34998 24-415): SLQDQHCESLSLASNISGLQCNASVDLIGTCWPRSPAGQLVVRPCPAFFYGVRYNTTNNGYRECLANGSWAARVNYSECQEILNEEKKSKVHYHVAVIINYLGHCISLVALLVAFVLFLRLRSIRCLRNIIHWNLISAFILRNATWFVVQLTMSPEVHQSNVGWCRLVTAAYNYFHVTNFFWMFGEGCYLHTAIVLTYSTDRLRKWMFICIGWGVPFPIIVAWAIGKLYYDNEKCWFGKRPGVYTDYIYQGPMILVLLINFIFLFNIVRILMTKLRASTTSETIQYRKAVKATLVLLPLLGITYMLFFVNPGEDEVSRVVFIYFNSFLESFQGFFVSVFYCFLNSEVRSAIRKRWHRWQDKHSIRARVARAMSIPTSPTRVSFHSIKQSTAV
Procedure: (§2) The values were determined from 3-6 independent experiments using stably transfected CHO cells or their membranes for each test peptide. EC50 and Ki values were determined using Prism software. Their log10 values were averaged (γ). The average EC50 or Ki was taken to be 10^γ. The standard deviation of the log10 values was calculated (σ). The ranges given were taken to be: [(10^γ)10^σ or 10^γ/10^σ].
(§3) This significant selectivity for the type 2 receptor was seen also in receptor activation as measured by accumulation of intracellular cAMP. Stably transfected CHO cells (cultured in DMEM/10% FBS) were plated into 48-well tissue culture dishes (Costar) and allowed to recover for 24 hours. The medium was changed to DMEM/0.1% FBS at least two hours before treatment. The cells were preincubated for 30 min with 0.1 mM 3-isobutyl-1-methylxanthine and then exposed to peptides for 20 min at 37° C. Intracellular cAMP was extracted and measured in duplicate from triplicate wells using a RIA kit (Biomedical Technologies). […] The extremely low affinity of Ucn II for CRF-R1 precluded a determination of its efficacy on this receptor.

CRF-R2 = molecular target: T2, CRF-R2 (Mus musculus, UniProt Q60748); assay: as above; format: cell-based; conditions: peptides 20 min at 37° C.
T2 construct: expressed in transfected cells; host or cells: CHO cells, stably transfected
Procedure: as §2, §3

CRFR1 [6] = molecular target: T1, CRFR1; assay: Radioreceptor assay, displacement of 125I-[Tyr0,Glu1,Nle17]-sauvagine, CHO cell membranes (Example 4); conditions: 3-6 experiments, range from SD of log10 values, read-out: CRF-R1 Avg. Ki (nM) (Binding)
Procedure: (§4) The affinity of Ucn II to the CRF-R1 and CRF-R2 receptors was evaluated using a radioreceptor assay. Crude membrane fractions were prepared from CHO cells stably expressing either cloned CRF-R1 or CRF-R2β. Test peptides and the radioligand, ^125I-[Tyr^0, Glu^1, Nle^17]-sauvagine, were diluted in assay buffer (20 mM HEPES, 2 mM EGTA, 0.1% BSA, 10% sucrose, pH 7.6) and combined with the receptor membrane preparations in MAGV microtiter plates (Millipore) pre-coated with 0.1% polyethylene imine. The reaction mixture was incubated for 90 min at room temperature followed by rapid washing twice with assay buffer and filtration. The radioligand complex was quantified by gamma radiation counting. Inhibitory binding constants were determined using Prism software.
as §2

CRF-R2β = molecular target: T3, CRF-R2β (Mus musculus, UniProt Q60748); assay: as above; conditions: 3-6 experiments, range from SD of log10 values, read-out: CRF-R2 Avg. Ki (nM) (Binding)
T3 construct: expressed in transfected cells; host or cells: CHO cells, stably transfected
Procedure: as §4, §2

[7] = Food intake after icv hURP; format: in vivo, rat; conditions: 5 μg icv
Procedure: The effect of human urocortin-related peptide on appetite was also examined in rats. Cannulas for injection of human urocortin-related peptide were surgically into the right lateral ventricle and the animals were allowed to recover for seven days. During the time, the animals were handled daily to acclimatize the animals to the injection procedure. On the day of injection, the animals were injected with either 5 μl of saline or 5 μl of 1 μg/μl human urocortin-related peptide in saline. The amount of food eaten by each animal was recorded every hour for six hours and at fourteen hours.

[8] = Body temperature after icv hURP; format: in vivo, rat; conditions: 5 μg icv, monitored twelve hours
From the text: The effect of human urocortin-related peptide on the body temperature of rats was examined. Cannulas for injection of human urocortin-related peptide were surgically into the right lateral ventricle. Telemeters for the continuous unobtrusive analysis of body temperature were implanted intraabdominally. The animals were allowed a post-surgical recovery period of seven days. During the time, the animals were handled daily to acclimatize the animals to the injection procedure. On the day of injection, baseline temperature was for recorded for three hours. At 6:00 p.m. (the onset of lights out) the animals were injected with either 5 μl of saline or 5 μl of 1 μg/μl human urocortin-related peptide in saline. Body temperature was monitored every five minutes for twelve hours.

CRFR1 [9] = molecular target: T1, CRFR1; assay: Displacement of 125I-Sauvagine binding, CHO membranes (Example 5)
Procedure: (§5) FIGS. 5A and 5B show the human urocortin-related peptide mediated displacement of ^125I-Sauvagine binding to CRFR1 and CRFR2β, respectively. The affinities of Ucn and URP peptides for CRFR1 and CRFR2β_stably expressed in CHO cells were determined by the competitive displacement of the ^125I-Sauvagine.
(§6) Membranes were prepared as described above (29). Binding was performed in 96-well 0.2 μm Durapore plates using the vacuum filtration multiscreen assay system (Millipore). […] Plates were incubated for 1 hour at room temperature, vacuum-filtered, washed twice with binding buffer, and allowed to dry. Individual filters were punched out and counted using a gamma counter.

CRFR2β = assay: as above; conditions: CRF-R2β versus CRF-R1
Procedure: as §5, §6

T2 sequence (Q60748 27-431 isoform Q60748-2 limits assumed): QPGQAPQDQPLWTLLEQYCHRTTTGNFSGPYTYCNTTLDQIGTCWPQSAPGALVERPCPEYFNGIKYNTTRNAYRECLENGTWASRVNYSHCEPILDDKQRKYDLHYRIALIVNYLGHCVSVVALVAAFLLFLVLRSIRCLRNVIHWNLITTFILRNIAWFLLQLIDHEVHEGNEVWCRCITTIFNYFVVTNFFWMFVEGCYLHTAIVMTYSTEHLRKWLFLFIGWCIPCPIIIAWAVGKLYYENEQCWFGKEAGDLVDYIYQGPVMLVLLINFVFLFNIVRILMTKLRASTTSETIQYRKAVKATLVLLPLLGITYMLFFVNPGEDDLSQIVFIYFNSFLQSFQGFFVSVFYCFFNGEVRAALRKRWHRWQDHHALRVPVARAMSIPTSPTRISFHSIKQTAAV
T3 sequence (Q60748 27-431 isoform Q60748-2 limits assumed): as above

Substance: CRF: 41-amino acid peptide initiating pituitary-adrenal responses to stress; R1-selective agonist (SEEPPISLDLTFHLLREVLEMARAEQLAQQAHSNRKLMEII; ends and bridges not checked; UniProt P06850 154-194, looked up)
- Degree of suppression of food intake over the 12 hr interval ([1]; nocturnal phase): 30%
- Time post-injection at which food intake is significantly less than saline controls [1]: 4 h
- Gross motor activity versus vehicle [2]: significantly more active than vehicle-treated rats; also recorded: significantly elevated

Substance: IVLSLDVPIGLLQILLEQARARAAREQATTNARILARVGHC-NH2 [URP (human)]
- Fos-immunoreactivity in central stress-related cell groups (Fos expression): Fos-immunoreactivity was detected
- Stimulation of ACTH secretion relative to urocortin ([3]; listed as Human urocortin-related peptide): significantly lower potency compared to urocortin or CRF
- Stimulation of ACTH secretion relative to urocortin ([3]; listed as human urocortin-related peptide): less sensitive to human urocortin-related peptide than to urocortin
- Gross motor activity versus saline controls [4]: No significant difference in gross motor activity
- EC50 (CRFR1 [5]): > 100 nM
- EC50 (CRF-R2): 0.42 nM
- Ki (CRFR1 [6]): > 100 nM
- Ki (CRF-R2β): 0.5 nM
- Total food consumed versus control ([7]; over fourteen hours): ate significantly less food than control animals
- Food consumed during each time period versus control ([7]; per time period): especially ate less food during the first and third hours after injection as well as during the final eight hours of the experiment
- Body temperature versus saline controls [8]: lower body temperatures both immediately and at seven hours after injection
- pKi (CRFR1 [9]; Example 5, FIG. 5, CHO cells, read-out: Disassociation constant (Ki) for CRF-R1): 7.11
- pKi (CRFR1 [9]; synthesized peptide, as stated in the Summary, read-out: Ki for CRF-R1 (summary statement)): 7.15
- Specificity for CRF type II receptor relative to urocortin (CRFR2β): much more specific for the corticotropin releasing factor type II receptor than urocortin
